In patent EP4660190A1, “PHARMACEUTICALLY ACCEPTABLE SALT OF COMPOUND AND PREPARATION METHOD THEREFOR” (Jiangsu Chia Tai Fenghai Pharmaceutical Co., Ltd., priority 2023, dated 2024):
Where two headings read alike, the source gives them in different places.

Assays:
SOD1 G93A ALS mice = experiment: SOD1-G93A ALS mice, survival; type: in vivo; details: 40 mg/kg dose group
[1] = system: TDP-43-A315T transgenic mice of ALS model; experiment: TDP-43-A315T ALS mice, muscle tone test; type: in vivo; details: Mean±SEM
[2] = system: TDP-43-A315T transgenic mice of ALS model; experiment: TDP-43-A315T ALS mice, rotarod test; type: in vivo; details: Mean±SEM
[3] = system: MPTP-induced Parkinson's disease model mice; experiment: MPTP-induced mouse Parkinson's disease model, pole test; type: in vivo, C57 mice; details: mean ± SD
[4] = system: rat spinal cord injury model; experiment: Rat spinal cord injury model, Neurofilament 200 (NF200) expression; type: in vivo, Male SD rats; details: mean±SD, n=6
[5] = for Total impurities: Table 4
[6] = system: rat spinal cord injury model; experiment: Rat spinal cord injury model, pathological changes
[7] = system: MPTP-induced Parkinson's disease model mice; experiment: MPTP-induced mouse Parkinson's disease model, grip strength test; details: Before Modeling, mean ± SD

## (Z)-3-(1-hydroxybutenyl)benzofuran-2-one tromethamine salt [Example 10]
SOD1 G93A ALS mice
  extension of survival: approximately 15 days
[1]; female mice, 20mg/kg, animal age 6 weeks
  Muscle Tone: 165.4 ± 7.815 g
[1]; female mice, 20mg/kg, animal age 8 weeks
  Muscle Tone: 190.2 ± 14.13 g
[1]; female mice, 20mg/kg, animal age 10 weeks
  Muscle Tone: 153.7 ± 8.355 g
[1]; female mice, 20mg/kg, animal age 12 weeks
  Muscle Tone: 159.4 ± 13.21 g
[1]; female mice, 20mg/kg, animal age 13 weeks
  Muscle Tone: 149.8 ± 4.815 g
[1]; female mice, 20mg/kg, animal age 14 weeks
  Muscle Tone: 150.9 ± 6.940 g
[1]; female mice, 20mg/kg, animal age 16 weeks
  Muscle Tone: 159.5 ± 7.125 g
[1]; female mice, 40mg/kg p.o., animal age 6 weeks
  Muscle Tone: 155.8 ± 3.677 g
[1]; female mice, 40mg/kg p.o., animal age 8 weeks
  Muscle Tone: 190.6 ± 10.24 g
[1]; female mice, 40mg/kg p.o., animal age 10 weeks
  Muscle Tone: 147.8 ± 7.822 g
[1]; female mice, 40mg/kg p.o., animal age 12 weeks
  Muscle Tone: 154.3 ± 6.584 g
[1]; female mice, 40mg/kg p.o., animal age 13 weeks
  Muscle Tone: 148.1 ± 4.851 g
[1]; female mice, 40mg/kg p.o., animal age 14 weeks
  Muscle Tone: 161.6 ± 2.816 g
[1]; female mice, 40mg/kg p.o., animal age 16 weeks
  Muscle Tone: 155.2 ± 3.339 g
[1]; male mice, 40mg/kg p.o., animal age 6 weeks
  Muscle Tone: 155.4 ± 6.495 g
[1]; male mice, 40mg/kg p.o., animal age 8 weeks
  Muscle Tone: 170.9 ± 6.777 g
[1]; male mice, 40mg/kg p.o., animal age 10 weeks
  Muscle Tone: 155.6 ± 8.359 g
[1]; male mice, 40mg/kg p.o., animal age 12 weeks
  Muscle Tone: 123.1 ± 18.21 g
[1]; male mice, 40mg/kg p.o., animal age 13 weeks
  Muscle Tone: 120.8 ± 12.91 g
[1]; male mice, 40mg/kg p.o., animal age 14 weeks
  Muscle Tone: 89.72 ± 19.04 g
[1]; male mice, 60mg/kg p.o., animal age 6 weeks
  Muscle Tone: 175.7 ± 7.244 g
[1]; male mice, 60mg/kg p.o., animal age 8 weeks
  Muscle Tone: 177.0 ± 5.555 g
[1]; male mice, 60mg/kg p.o., animal age 10 weeks
  Muscle Tone: 155.93 ± 4.345 g
[1]; male mice, 60mg/kg p.o., animal age 12 weeks
  Muscle Tone: 136.8 ± 16.00 g
[1]; male mice, 60mg/kg p.o., animal age 13 weeks
  Muscle Tone: 149.8 ± 3.710 g
[1]; male mice, 60mg/kg p.o., animal age 14 weeks
  Muscle Tone: 149.8 ± 2.045 g
[2]; female mice, 20mg/kg, Dosing Schedule (weeks) 2
  Rotarod performance: 287.0 ± 8.449 s
[2]; female mice, 20mg/kg, Dosing Schedule (weeks) 4
  Rotarod performance: 288.6 ± 7.796 s
[2]; female mice, 20mg/kg, Dosing Schedule (weeks) 6
  Rotarod performance: 285.4 ± 6.626 s
[2]; female mice, 20mg/kg, Dosing Schedule (weeks) 8
  Rotarod performance: 266.3 ± 14.55 s
[2]; female mice, 20mg/kg, Dosing Schedule (weeks) 10
  Rotarod performance: 254.2 ± 12.62 s
[2]; female mice, 20mg/kg, Dosing Schedule (weeks) 12
  Rotarod performance: 266.2 ± 14.94 s
[2]; female mice, 20mg/kg, Dosing Schedule (weeks) 14
  Rotarod performance: 272.3 ± 10.62 s
[2]; female mice, 20mg/kg, Dosing Schedule (weeks) 16
  Rotarod performance: 267.8 ± 16.51 s
[2]; female mice, 40mg/kg p.o., Dosing Schedule (weeks) 2
  Rotarod performance: 273.6 ± 12.14 s
[2]; female mice, 40mg/kg p.o., Dosing Schedule (weeks) 4
  Rotarod performance: 271.4 ± 10.22 s
[2]; female mice, 40mg/kg p.o., Dosing Schedule (weeks) 6
  Rotarod performance: 269.5 ± 8.270 s
[2]; female mice, 40mg/kg p.o., Dosing Schedule (weeks) 8
  Rotarod performance: 275.6 ± 9.651 s
[2]; female mice, 40mg/kg p.o., Dosing Schedule (weeks) 10
  Rotarod performance: 260.6 ± 12.34 s
[2]; female mice, 40mg/kg p.o., Dosing Schedule (weeks) 12
  Rotarod performance: 270.6 ± 9.446 s
[2]; female mice, 40mg/kg p.o., Dosing Schedule (weeks) 14
  Rotarod performance: 256.3 ± 10.00 s
[2]; female mice, 40mg/kg p.o., Dosing Schedule (weeks) 16
  Rotarod performance: 236.5 ± 15.50 s
[2]; male mice, 40mg/kg p.o., Dosing Schedule (weeks) 6
  Rotarod performance: 272.9 ± 7.148 s
[2]; male mice, 40mg/kg p.o., Dosing Schedule (weeks) 8
  Rotarod performance: 267.5 ± 9.357 s
[2]; male mice, 40mg/kg p.o., Dosing Schedule (weeks) 10
  Rotarod performance: 275.8 ± 10.38 s
[2]; male mice, 40mg/kg p.o., Dosing Schedule (weeks) 11
  Rotarod performance: 224.3 ± 26.08 s
[2]; male mice, 40mg/kg p.o., Dosing Schedule (weeks) 12
  Rotarod performance: 182.1 ± 40.34 s
[2]; male mice, 40mg/kg p.o., Dosing Schedule (weeks) 13
  Rotarod performance: 154.2 ± 30.27 s
[2]; male mice, 60mg/kg p.o., Dosing Schedule (weeks) 6
  Rotarod performance: 295.6 ± 3.322 s
[2]; male mice, 60mg/kg p.o., Dosing Schedule (weeks) 8
  Rotarod performance: 275.1 ± 11.91 s
[2]; male mice, 60mg/kg p.o., Dosing Schedule (weeks) 10
  Rotarod performance: 267.3 ± 10.94 s
[2]; male mice, 60mg/kg p.o., Dosing Schedule (weeks) 11
  Rotarod performance: 263.0 ± 12.54 s
[2]; male mice, 60mg/kg p.o., Dosing Schedule (weeks) 12
  Rotarod performance: 266.3 ± 17.99 s
[2]; male mice, 60mg/kg p.o., Dosing Schedule (weeks) 13
  Rotarod performance: 209.0 ± 31.68 s
[3]; high dose 20 mg/kg daily, four weeks, Study Endpoint, listed as Tromethamine salt from Example 10, 20 mg/kg
  Pole test results: 8.83 ± 1.77 s
[3]; high dose 20 mg/kg daily, four weeks, Study Endpoint, listed as tromethamine salt from Example 10, 20 mg/kg
  Pole test results: 8.83 ± 1.77 s
[3]; high dose 20 mg/kg group, Before Modeling
  Pole test results: 9.51 ± 1.66 s
[3]; low dose 5 mg/kg daily, four weeks, Study Endpoint, listed as Tromethamine salt from Example 10, 5 mg/kg
  Pole test results: 9.67 ± 1.48 s
[3]; low dose 5 mg/kg daily, four weeks, Study Endpoint, listed as tromethamine salt from Example 10, 5 mg/kg
  Pole test results: 9.67 ± 1.48 s
[3]; low dose 5 mg/kg group, Before Modeling
  Pole test results: 9.40 ± 1.51 s
[4]; high dose 20 mg/kg
  Positive Count (number per field of view): 30.3±7.4 number per field of view
[4]; low dose 5 mg/kg
  Positive Count (number per field of view): 22.5± 7.5 number per field of view
[5]; 0 h
  Total impurities: 0.08
[5]; High Humidity 75%, 10 d
  Total impurities: 0.04
[5]; High Humidity 92.5%, 10 d
  Total impurities: 0.04
[5]; High temperature 60°C, 10 d
  Total impurities: 0.03
[5]; Light (packaged), 10 d
  Total impurities: 0.04
[5]; Light (unwrapped), 10 d
  Total impurities: 0.03
[5]; high temperature (60°C), light (unwrapped, packaged), high humidity (92.5%, 75%)
  chemical stability: good chemical stability
[6]; 20 mg/kg dose group, spinal cord histopathology
  cases showing a reduction in lesions: 4 out of 6
[6]; low-dose group (5 mg/kg)
  pathological changes versus the model control group: No significant differences
[7]; high dose 20 mg/kg group
  Grip Strength Test: 278.44 ± 8.96 g
[7]; low dose 5 mg/kg group
  Grip Strength Test: 276.97 ± 6.40 g
